Consider one molecule from ChEMBL document CHEMBL6078639, “Andrographolide: A promising therapeutic agent against organ fibrosis” (Eur J Med Chem, 2024).

Structures are written as SMILES.

Assay type in all cases: ADME, organism-based
Details in all cases: in vivo

Series [1] in a line: Oral bioavailability in Wistar rat at 20 mg/kg by LC-MS/MS analysis.
Series [2] is described as follows: Tmax in Wistar rat at 20 mg/kg, […] by LC-MS/MS analysis.
Series [3] can be described thus: Tmax in Wistar rat at 200 mg/kg, […] by LC-MS/MS analysis.
A short description of series [4]: Oral bioavailability in human.

In general, bioavailability refers to dose-corrected exposure relative to a reference, in per cent. A higher bioavailability goes with good availability. As usually defined, the Tmax is the time at which the peak concentration occurs. On to `C=C1CC[C@@H]2[C@](C)(CO)[C@H](O)CC[C@@]2(C)[C@@H]1C/C=C1/C(=O)OC[C@H]1O` [ANDROGRAPHOLIDE], for which the bioavailability in series [1] was found to be 61.2%; in series [4], 2.67%. For the same molecule, the time to peak (Tmax) in series [2] was 62.4 min; in series [3], 39.6 min.
